Assay results from patent US20060099643A1, “Method for determining the regulation of xenobiotic removal” (priority 2002, published 2006).
Values belong to the molecule of their own block, whether it stands above or below them.

Tests used:
SXR = target: T1, SXR (Homo sapiens, UniProt O75469); assay: Microplate thermal shift assay (Thermofluor) of SXR with ligands, co-activator peptide SRC1-NR2 and co-repressor peptide NCoR-1; conditions: for Probability Agonist (statistical probability of agonist state): computed from affinities derived from ΔΔTm with co-regulator peptides (FIG. 3); for ΔΔTm SRC1-NR2: co-activator peptide SRC1-NR2 100 μM; for ΔTm at 100 µM: read-out: ΔΔTm NcoR1-NR2
T1 sequence (O75469 1-434): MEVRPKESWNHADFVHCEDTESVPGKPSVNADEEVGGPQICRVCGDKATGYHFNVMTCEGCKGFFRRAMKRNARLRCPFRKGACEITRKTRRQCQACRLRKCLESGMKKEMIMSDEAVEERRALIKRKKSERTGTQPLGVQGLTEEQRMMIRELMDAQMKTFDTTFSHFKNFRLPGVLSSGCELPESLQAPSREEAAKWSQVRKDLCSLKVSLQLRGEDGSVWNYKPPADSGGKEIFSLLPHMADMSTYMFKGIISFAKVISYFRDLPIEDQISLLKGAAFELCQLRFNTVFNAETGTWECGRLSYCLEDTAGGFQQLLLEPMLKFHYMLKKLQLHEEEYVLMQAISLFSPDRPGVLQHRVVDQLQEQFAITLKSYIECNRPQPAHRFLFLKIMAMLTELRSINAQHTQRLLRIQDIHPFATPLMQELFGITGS
Experimental: A 2 μL ligand solution at 2 times the final concentration was dispensed with a micropipette into a 384 well black wall Greiner plate. Then, 2 μL of the protein dye solution was dispensed on top of the ligand solution in the 384 well plate. The plates were spun to ensure mixing of the protein-dye and ligand solutions followed by layering of 1 μL of silicone oil to prevent evaporation during heating of the samples. […] The values for the co-regulators represent a change in Tm stabilization from the receptor-ligand ΔTm values.

ER-β [1] = target: ER-β (Homo sapiens, UniProt Q92731); assay: Microplate thermal shift assay (Thermofluor) of ER-β with ligands and co-regulators; format: binding; conditions: for Observed ΔTm Stabilization, SRC3-NR2: co-activator peptide SRC3-NR2 100 μM; for Observed ΔTm Stabilization, NR2: change in Tm stabilization from the receptor-ligand ΔTm; for Observed ΔTm Stabilization, NR2 / Observed ΔTm Stabilization, SRC-3: head shifted, see doubts; for Observed ΔTm Stabilization, SRC-3: average of four experiments
Chain of ER-β (Homo sapiens, UniProt Q92731) (Q92731 whole entry, species assumed): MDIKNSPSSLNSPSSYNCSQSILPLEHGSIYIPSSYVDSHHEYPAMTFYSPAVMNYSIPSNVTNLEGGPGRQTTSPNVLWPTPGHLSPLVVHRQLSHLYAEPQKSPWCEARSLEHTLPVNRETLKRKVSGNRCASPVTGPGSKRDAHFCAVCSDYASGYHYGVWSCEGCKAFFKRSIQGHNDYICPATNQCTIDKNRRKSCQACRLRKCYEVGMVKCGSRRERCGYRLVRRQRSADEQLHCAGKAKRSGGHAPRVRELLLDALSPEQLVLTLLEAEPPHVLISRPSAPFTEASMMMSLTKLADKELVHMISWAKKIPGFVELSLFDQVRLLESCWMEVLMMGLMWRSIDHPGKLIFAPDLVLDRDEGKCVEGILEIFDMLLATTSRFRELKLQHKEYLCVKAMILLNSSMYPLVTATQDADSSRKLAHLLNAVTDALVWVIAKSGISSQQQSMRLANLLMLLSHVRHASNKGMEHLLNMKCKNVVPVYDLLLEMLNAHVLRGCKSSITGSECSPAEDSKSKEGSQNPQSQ
Experimental: (§1) A 2 μM ligand solution at 2 times the final concentration was dispensed with a micropipette into a 384 well black wall Greiner plate. Then, 2 μL of the protein dye solution was dispensed on top of the ligand solution in the 384 well plate. The plates were spun to ensure mixing of the protein-dye and ligand solutions followed by layering of 1 μL of silicone oil to prevent evaporation during heating of the samples.

ER-α [2] = target: T2, ER-α (Homo sapiens, UniProt P03372); assay: Microplate thermal shift assay (Thermofluor) of ER-α with ligands and co-regulators; format: binding
T2 sequence (P03372 1-595): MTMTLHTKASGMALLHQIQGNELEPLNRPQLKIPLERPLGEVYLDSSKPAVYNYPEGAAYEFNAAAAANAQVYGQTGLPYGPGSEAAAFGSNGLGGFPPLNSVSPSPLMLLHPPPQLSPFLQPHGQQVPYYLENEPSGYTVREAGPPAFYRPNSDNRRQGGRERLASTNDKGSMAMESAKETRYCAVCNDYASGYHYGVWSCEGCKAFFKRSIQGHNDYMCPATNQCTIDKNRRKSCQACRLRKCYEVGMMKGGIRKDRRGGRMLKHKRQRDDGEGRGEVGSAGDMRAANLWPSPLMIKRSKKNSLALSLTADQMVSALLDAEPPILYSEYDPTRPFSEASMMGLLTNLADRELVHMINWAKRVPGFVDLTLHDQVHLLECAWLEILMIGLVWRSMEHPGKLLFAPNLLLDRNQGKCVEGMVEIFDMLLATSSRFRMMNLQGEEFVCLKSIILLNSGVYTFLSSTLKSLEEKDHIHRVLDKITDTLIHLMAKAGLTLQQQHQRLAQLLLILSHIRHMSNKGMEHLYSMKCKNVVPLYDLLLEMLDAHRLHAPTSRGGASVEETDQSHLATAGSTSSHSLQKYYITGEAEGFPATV
Experimental: as §1

ER-α [3] = target: T3, ER-α (UniProt P03372 297-554, limits assumed); assay: Thermofluor thermal shift; ER-α 8 µM, no ligand; peptide 100 µM
T3 construct: also called estrogen receptor alpha
T3 sequence (looked up): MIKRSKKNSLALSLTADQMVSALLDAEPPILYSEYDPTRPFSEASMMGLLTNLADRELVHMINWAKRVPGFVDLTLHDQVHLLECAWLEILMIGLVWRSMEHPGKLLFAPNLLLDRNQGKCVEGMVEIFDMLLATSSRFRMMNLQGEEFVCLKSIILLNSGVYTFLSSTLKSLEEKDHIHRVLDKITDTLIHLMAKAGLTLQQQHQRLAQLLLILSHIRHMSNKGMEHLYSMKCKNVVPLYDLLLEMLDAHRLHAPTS
Experimental: as §1

ER-β [4] = target: T4, ER-β (UniProt Q92731 256-505, limits assumed); assay: Thermofluor thermal shift; ER-β 8 µM, no ligand; peptide 100 µM
T4 construct: also called estrogen receptor beta
T4 sequence (Q92731 256-505 limits assumed): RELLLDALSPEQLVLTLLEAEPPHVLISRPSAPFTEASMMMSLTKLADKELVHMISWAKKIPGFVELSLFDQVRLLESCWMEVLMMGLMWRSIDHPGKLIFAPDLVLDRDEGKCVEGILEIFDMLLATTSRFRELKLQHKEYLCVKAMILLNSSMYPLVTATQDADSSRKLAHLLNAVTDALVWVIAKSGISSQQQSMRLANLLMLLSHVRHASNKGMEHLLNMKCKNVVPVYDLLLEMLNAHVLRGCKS
Experimental: as §1

ER-α [5] = target: T3, ER-α; assay: Thermofluor thermal shift; ER-α 8 µM with estrone 20 µM; peptide 100 µM
Experimental: as §1

ER-β [6] = target: T4, ER-β; assay: Thermofluor thermal shift; ER-β 8 µM with estrone 20 µM; peptide 100 µM
Experimental: as §1

ER-α [7] = target: T3, ER-α; assay: Thermofluor thermal shift; ER-α 8 µM with estradiol 20 µM; peptide 100 µM
Experimental: as §1

ER-α [8] = target: T3, ER-α; assay: Thermofluor thermal shift; ER-α 8 µM with tamoxifen 20 µM; peptide 100 µM
Experimental: as §1

ER-β [9] = target: T4, ER-β; assay: Thermofluor thermal shift; ER-β 8 µM with estradiol 20 µM; peptide 100 µM
Experimental: as §1

ER-β [10] = target: T4, ER-β; assay: Thermofluor thermal shift; ER-β 8 µM with tamoxifen 20 µM; peptide 100 µM
Experimental: as §1

ER-α [11] = target: T3, ER-α; assay: Thermofluor thermal shift; ER-α 8 µM with ICI-182780 20 µM; peptide 100 µM
Experimental: as §1

ER-β [12] = target: T4, ER-β; assay: Thermofluor thermal shift; ER-β 8 µM with ICI-182780 20 µM; peptide 100 µM
Experimental: as §1

ER-α [13] = target: T3, ER-α; assay: Thermofluor thermal shift; ER-α 8 µM with 2-methoxy-E2 20 µM; peptide 100 µM
Experimental: as §1

ER-β [14] = target: T4, ER-β; assay: Thermofluor thermal shift; ER-β 8 µM with 2-methoxy-E2 20 µM; peptide 100 µM
Experimental: as §1

ER-α [15] = target: T3, ER-α; assay: Thermofluor thermal shift; ER-α 8 µM with 4-OH-tamoxifen 20 µM; peptide 100 µM
Experimental: as §1

ER-β [16] = target: T4, ER-β; assay: Thermofluor thermal shift; ER-β 8 µM with 4-OH-tamoxifen 20 µM; peptide 100 µM
Experimental: as §1

ER-α [17] = target: T3, ER-α; assay: Thermofluor thermal shift; ER-α 8 µM with 17-α-ethylene-E2 20 µM; peptide 100 µM
Experimental: as §1

ER-β [18] = target: T4, ER-β; assay: Thermofluor thermal shift; ER-β 8 µM with 17-α-ethylene-E2 20 µM; peptide 100 µM
Experimental: as §1

[19] = ER-β 8 μM, ligand 20 μM, change from the receptor-ligand ΔTm
[20] = SXR 6 μM, ligand 50 μM, change from the receptor-ligand ΔTm

Molecule: C[C@]12CCC(=O)C=C1CC[C@@H]1[C@@H]2C(=O)C[C@@]2(C)[C@H]1CC[C@]2(O)C(=O)CO [Cortisone]
ΔΔTm NcoR1-NR2 (SXR; SXR 6 μM, ligand 50 μM, co-repressor peptide NCoR-1 100 μM, change from the receptor-ligand ΔTm): 3.6 | Probability Agonist (statistical probability of agonist state) (SXR): 0.37

Observed ΔTm Stabilization, SRC3-NR2 (ER-β [1]; [19]): 3.5 | Observed ΔTm Stabilization, NR2 (ER-β [1]; ER-β 8 μM, ligand 20 μM): 3.4 | Kd (SXR): 8.7 µM | ΔΔTm SRC1-NR2 (SXR; [20]): 3.9 | Probability Agonist (statistical probability of agonist state) (SXR): 0.76 | ΔTm at 100 µM (SXR): 2.3 °C
Molecule: C[C@]12CC[C@@H]3c4ccc(O)cc4CC[C@H]3[C@@H]1CC[C@@H]2O [Estradiol]

Kd (SXR): 23 µM | ΔΔTm SRC1-NR2 (SXR; [20]): 3.3 | ΔTm ligand (SXR; SXR 6 μM, ligand 50 μM, average of four experiments): 1.3 °C | Probability Agonist (statistical probability of agonist state) (SXR): 0.49 | ΔTm at 100 µM (SXR): 3.4 °C
Molecule: CCOC(=O)C(C)(C)Oc1ccc(Cl)cc1 [Clofibrate]

Observed ΔTm Stabilization, SRC3-NR2 (ER-α [2]; ER-α 8 μM, ligand 20 μM, co-activator peptide SRC3-NR2 100 μM, change from the receptor-ligand ΔTm): 0.2 | ΔTm at 100 µM (ER-α [2]; ER-α 8 μM, ligand 20 μM, co-repressor peptide NCoR-1 100 μM, change from the receptor-ligand ΔTm, read-out: Observed ΔTm Stabilization, NCoR1-NR1): -0.6 °C | Observed ΔTm Stabilization, NR2 (ER-α [2]; ER-α 8 μM, ligand 20 μM, change in Tm stabilization from the receptor-ligand ΔTm, head shifted, see doubts): 0.2 | Recruitment of co-activators (additional stabilization in the presence of co-activator protein/peptide) (ER-α [2]; result in words): no ability to recruit co-activators | ΔTm at 100 µM (ER-β [1]; ER-β 8 μM, ligand 20 μM, co-repressor peptide NCoR-1 100 μM, change from the receptor-ligand ΔTm, read-out: Observed ΔTm Stabilization, NCoR1-NR1): 0.3 °C | Observed ΔTm Stabilization, SRC-3 (ER-β [1]; ER-β 8 μM, ligand 20 μM): 16.7 | Observed ΔTm Stabilization, NR2 (ER-β [1]; ER-β 8 μM, ligand 20 μM): 0.4 | Recruitment of co-activators (additional stabilization in the presence of co-activator protein/peptide) (ER-β [1]; result in words): no ability to recruit co-activators
Molecule: C[C@]12CC[C@@H]3c4ccc(O)cc4C[C@@H](CCCCCCCCC[S+]([O-])CCCC(F)(F)C(F)(F)F)[C@H]3[C@@H]1CC[C@@H]2O (stereo partly drawn) [ICI-182780]

Observed ΔTm Stabilization, SRC-3 (ER-α [2]; ER-α 8 μM, ligand 20 μM, average of four experiments, head shifted, see doubts): 3.5 | Observed ΔTm Stabilization, SRC3-NR2 (ER-β [1]; [19]): 4.4 | Observed ΔTm Stabilization, NCoR1-NR1 (ER-β [1]; ER-β 8 μM, ligand 20 μM, co-repressor peptide NCoR-1 100 μM, change from the receptor-ligand ΔTm): −0.7 | Observed ΔTm Stabilization, SRC-3 (ER-β [1]; ER-β 8 μM, ligand 20 μM): 2.9 | Observed ΔTm Stabilization, NR2 (ER-β [1]; ER-β 8 μM, ligand 20 μM): 4.4
Molecule: COc1cc2c(cc1O)CC[C@@H]1[C@@H]2CC[C@]2(C)[C@@H](O)CC[C@@H]12 [Ligand 2-methoxy-E2, 2-methoxy-E2]

Molecule: MHGSLLQEKHRILHKLLQNGNSP (peptide, UniProt Q9Y6Q9 673-695, looked up, Peptide fragment of SRC-3) [co-activator peptide SRC3-NR2]
change in Tm stabilization from the receptor-ligand ΔTm (ER-α [3]): 0.9 | change in Tm stabilization from the receptor-ligand ΔTm (ER-β [4]): 0.9 | change in Tm stabilization from the receptor-ligand ΔTm (ER-α [5]): 2.3 | change in Tm stabilization from the receptor-ligand ΔTm (ER-β [6]): 3.7 | change in Tm stabilization from the receptor-ligand ΔTm (ER-α [7]): 4.3 | change in Tm stabilization from the receptor-ligand ΔTm (ER-α [8]): 0 | change in Tm stabilization from the receptor-ligand ΔTm (ER-β [9]): 3.5 | change in Tm stabilization from the receptor-ligand ΔTm (ER-β [10]): 0.4 | change in Tm stabilization from the receptor-ligand ΔTm (ER-α [11]): 0.2 | change in Tm stabilization from the receptor-ligand ΔTm (ER-β [12]): 0.6 | change in Tm stabilization from the receptor-ligand ΔTm (ER-α [13]): 4.3 | change in Tm stabilization from the receptor-ligand ΔTm (ER-β [14]): 4.4 | change in Tm stabilization from the receptor-ligand ΔTm (ER-α [15]): 0.7 | change in Tm stabilization from the receptor-ligand ΔTm (ER-β [16]): 0.8 | change in Tm stabilization from the receptor-ligand ΔTm (ER-α [17]): 3.9 | change in Tm stabilization from the receptor-ligand ΔTm (ER-β [18]): 2.6
